# Entries after “also recorded” stand apart in the source; their conditions may differ. Ends that are not written are not given here. Peptide text beside a SMILES is read from it. * marks the point of attachment. PEG = not defined here; 125I = [125I]*
# Tests used:
# tissue plaques = assay: Effect of metal ions, chelating agent and detergents on deposition of labelled peptide on tissue plaques; format: binding, human
# Source text: A deposition-enhancing agent may be added prior to the addition of the deposition-affecting agent to be tested.
# AD plaques [1] = assay: Deposition of ^125 I-labelled β-amyloid peptides onto plaques in AD brain tissue (homogenate binding, autoradiography); parameters: species or system human; details: for deposition activity of fragment (active / not active): labelled fragment combined with AD amyloid plaque or silk, relative to βA(1-40)-OH; for plaque competence as a function of pH: growth of tissue plaques by deposition of labelled peptides from solution; for activity relative to the full length peptide βA(1-40)-OH: plaque deposition on AD brain sections, two hours, densitometry of autoradiograms
# Experimental: Fragments labelled in accordance with the method described herein can be combined with amyloid plaque derived from Alzheimer's disease tissue or other amyloid substance such as silk, and tested for activity, for example, their ability to deposit on these materials.
# (§1) Brain tissue was obtained form normal and Alzheimer's disease patients at 0.5 to 14 hours postmortem, frozen on dry ice after collection, and stored at -20° C. until use. For filter binding studies, tissue homogenates were prepared after the method of H. P. Too and M. R. Hanley, Biochem. J. 252:545 (1988), the disclosure of which is incorporated by reference herein. Tissue was homogenized (Polytron, setting 7-8, 5-10 sec) in 5-10 volumes of 50 mM Tricine (pH 7.5) containing 10% sucrose and protease inhibitors (0.01% bacitracin, 0.002% soybean trypsin inhibitor, 0.0002% chicken egg trypsin inhibitor, 1 mM benzamidine hydrochloride) and pelleted at 10,000 g for 20 minutes. The homogenate was then resuspended and washed several times in Tricine buffer containing 120 mM NaCl, 10 mM EDTA, 300 mM KCl and centrifuged at 40,000 g for 20 minutes and stored at -20° C. for less than two months. Membranes (equivalent to about 30 mg tissue) were resuspended in 0.5 ml 50 mM TrisHCl (pH 7.5) containing 1 mg/ml bovine serum albumin (BSA), 10 mM MnCl2, 0.004% bacitracin, 0.002% chymostatin, 0.004% leupeptin, 0.1% dimethylsulfoxide for 30 minutes prior to addition of the radioligand (10^-11 to 10^-9 M) and various concentrations of unlabelled peptides in the same buffer.
# (§2) After incubating for two hours at room temperature, the homogenates (final volume 0.575 ml) were filtered through glass fiber filters (Whatman GF/D), presoaked for at least two hours in 1 mg/ml BSA and rinsed with 25 mM Tricine (pH 7.5). After washing twice with 25 mM TrisHCl (pH 7.5) at room temperature, the filters were counted in a gamma counter.
# For tissue autoradiography, unfixed tissue was serially sectioned at 5-15 μm and thaw-mounted onto gelatin-coated slices. Slide-mounted sections were stored at -20° C. in closed boxes over desiccant for less than three months before use. Sections were preincubated for 30 minutes and incubated with the radioligand for two hours under the same conditions according to the aforedescribed homogenate binding study. Alternatively, 50 mM TrisHCl rather than Tricine may be used as the buffer. For estimating nonspecific binding, paired serial sections were incubated with the radioligand in the presence of a 10^4 to 10^5 fold excess of the unlabelled peptide. Following incubation with the radioligand, the slides were washed with 50 mM TrisHCl pH 7.5 (four times, two minutes each at 4° C.), then dried at 4° C. and stored in closed boxes over desiccant at room temperature overnight. The fully dried slides were then placed in apposition to tritium-sensitive film alongside iodinated standards. After one week's exposure at -20° C., the film was developed, fixed and washed. […] This approach generated film autoradiograms for quantitative densitometry,a high resolution emulsion autoradiograms for detailed histology, and a counterstained section for identification of cell types from each tissue section.
# Briefly peptides were purchased or synthesized by fluorenemethoxycarbonyl chemistry on polystyrene resins, using acid-labile blocking groups for sidechain protection, cleaved with trifluoroacetic acid, and purified by RP-HPLC. […] Autoradiograms were quantitated by densitometry. […] To study the peptide fragments in water we developed a novel approach, measuring NMR data at 750 MHz using a prototype 10 mm ^1 H pulsed field gradient probe. Modified two-dimensional homonuclear TOCSY and NOESY experiments were measured at several pH values and structural information was derived using standard methods.
# [2] = biological target: T1, labelled β-amyloid peptide (Homo sapiens, UniProt P05067); assay: In vitro aggregation of labelled β-amyloid peptide in the absence of plaques (centrifugation, supernatant counting); format: biochemical; details: about 10^-9 M labelled peptide, 50 mM Tricine pH 7.5; SDS at 0.01%
# T1 construct: made in house; host or cells: chemical synthesis (solid-phase Fmoc) or purchased unlabelled peptide (Bachem); radioiodinated in house
# Experimental: A solution of about 10^-9 M labelled β-amyloid peptide in 50 mM Tricine buffer at pH 7.5 was prepared from stock solution of the peptide as described hereinabove in Example 1. The solution was aliquotted into several reaction vessels (polypropylene microcentrifuge tubes) and allowed to stand at room temperature with occasional vortex mixing. At various times, the tubes were centrifuged at 12000 g for 4 minutes, and the fraction of initial (t=0) cpm of labelled peptide remaining in the supernatant fraction determined by removing a small aliquot for counting. The rate of disappearance was dependent on a variety of other conditions which were evaluated using this assay. Thus, the rate of the disappearance depends on peptide concentration (faster at higher peptide concentrations), and on ionic strength (faster at higher salt concentrations). The rate of disappearance was further dependent on the presence of certain detergents such as sodium dodecylsulfate (SDS) (faster in 0.01% SDS; see, FIG. 4), and on the presence of certain organic solvents (slower in the presence of acetonitrile).
# [3] = biological target: amyloid plaques in Alzheimer's disease brain tissue (homogenates and thin sections); assay: deposition of 125I-labelled peptide onto AD brain sections, autoradiography with densitometry
# AD plaques [4] = assay: Deposition of ^125 I-labelled β-amyloid peptides onto plaques in AD brain tissue (homogenate binding, autoradiography); parameters: species or system human; details: for plaque deposition (plaque competence) at pH 3.9: quantitative densitometry of autoradiograms; for plaque deposition at pH 5.8: 100% = deposition of ^125 I-βA(1-40)-OH at pH 7.4
# ceilan katia yarn (silk) = assay: Effect of detergents and zinc on deposition of tracer onto silk; format: binding, Bombyx silkworm; details: for effect of detergent on rate of deposition (binding) onto silk: detergent concentration 0 to 1%
# [5] = tested on: Alzheimer's disease plaques; assay: Competitive inhibition of ^125 I-β-amyloid peptide^1-40 deposition in homogenates of Alzheimer's disease temporal cortex; format: binding, human; details: increasing concentrations of unlabelled peptide, AD temporal cortex homogenates (and sections)
# Experimental: as §1, §2
# T1 sequence (P05067 672-711): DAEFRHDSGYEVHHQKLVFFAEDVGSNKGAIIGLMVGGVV
# Chain of βA(1-28)-OH (peptide) (peptide): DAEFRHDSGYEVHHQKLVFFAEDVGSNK
molecule,measurement,setting,value
"O=C(O)CN(CCN(CC(=O)O)CC(=O)O)CC(=O)O [EDTA, ethylene diamine tetraacetic acid]",inhibition of the rate of deposition of labelled peptide,tissue plaques; 0.1 mM,five-fold
(des-A2)-βA(1-40)-OH: 39-mer lacking the alanine at position 2,deposition activity of fragment (active / not active),AD plaques [1],active
CC#N [acetonitrile],rate of disappearance of tracer from the supernatant (aggregation),[2],slower
"βA(10-35)-OH: β-amyloid fragment residues 10-35, free carboxyl terminus (YEVHHQKLVFFAEDVGSNKGAIIGLM-OH)",deposition activity of fragment (active / not active),AD plaques [1],active
βA(1-28)-OH (peptide),activity relative to βA(1-40)-OH,[3],< 1%
βA(10-35)-NH2: 26 residue carboxyamidated fragment from the central region of the βA sequence (YEVHHQKLVFFAEDVGSNKGAIIGLM-NH2; also: 125I at Tyr10 as tracer (name unlabelled)),plaque competence as a function of pH,AD plaques [1],plaque-competent within the pH range of 5 to 9
same,deposition activity of fragment (active / not active),AD plaques [1],active
same,activity as fraction of the activity of βA(1-40)-OH,AD plaques [1]; physiological (subnanomolar) peptide concentration,about 1/3
same,activity relative to the full length peptide βA(1-40)-OH,AD plaques [1],about 35%
"^125 I-βA(1-40)-OH: ^125 I-radioiodinated (monoiodinated, reduced) human β-amyloid peptide 1-40 tracer",pH optimum of deposition onto plaques in AD tissue,AD plaques [1]; 100 pM,around neutrality
same,deposition in tissue without preformed plaques,AD plaques [1]; tissue without preformed plaques,no deposition was detected
same,plaque deposition (plaque competence) at pH 3.9,AD plaques [4],plaque-incompetent
same,plaque deposition at pH 5.8,AD plaques [4],83%
CC(C)C[C@H](NC(=O)[C@H](CCCCN)NC(=O)[C@H](CCC(N)=O)NC(=O)[C@H](Cc1c[nH]cn1)NC(=O)[C@H](Cc1c[nH]cn1)NC(=O)[C@@H](NC(=O)[C@@H](N)CCC(=O)O)C(C)C)C(=O)N[C@H](C(=O)N[C@@H](Cc1ccccc1)C(=O)N[C@@H](Cc1ccccc1)C(=O)N[C@@H](C)C(=O)N[C@@H](CCC(=O)O)C(=O)N[C@@H](CC(=O)O)C(=O)N[C@H](C(=O)NCC(=O)O)C(C)C)C(C)C [βA(11-25)-OH],deposition activity of fragment (active / not active),AD plaques [1],not active (exhibit less than about 1% of the deposition level of βA(1-40)OH)
Triton X-100,effect of detergent on deposition of labelled peptide on tissue plaques,tissue plaques,no effect
same,effect of detergent on rate of deposition (binding) onto silk,ceilan katia yarn (silk),no effect
CC[C@H](C)[C@H](NC(=O)[C@H](C)NC(=O)CNC(=O)[C@H](CCCCN)NC(=O)[C@H](CC(N)=O)NC(=O)[C@H](CO)NC(=O)CN)C(=O)N[C@H](C(=O)NCC(=O)N[C@@H](CC(C)C)C(=O)N[C@@H](CCSC)C(N)=O)[C@@H](C)CC [βA(25-35)-NH2] (H-GSNKGAIIGLM-NH2),inhibition of ^125 I-β-amyloid peptide^1-40 deposition onto plaques,[5]; listed as β-amyloid peptide^25-35 -NH2,competed with the 40-mer radioligand when the former was present at much higher concentrations; also recorded: substantially less potent
same,deposition activity of fragment (active / not active),AD plaques [1],not active (exhibit less than about 1% of the deposition level of βA(1-40)OH)
"rat βA(1-40)-OH: rat and mouse analogue (G^5, F^10, R^14) of β-amyloid peptide, 1-40 (DAEFGHDSGFEVHRQKLVFFAEDVGSNKGAIIGLMVGGVV-OH)",inhibition of ^125 I-β-amyloid peptide^1-40 deposition onto plaques,[5]; listed as rat β-amyloid peptide^1-40,essentially inactive
same,inhibition of ^125 I-β-amyloid peptide^1-40 deposition onto plaques,[5]; listed as unlabelled rat β-amyloid peptide^1-40,did not inhibit
same,deposition activity of fragment (active / not active),AD plaques [1],not active (exhibit less than about 1% of the deposition level of βA(1-40)OH)
[Cl-].[Cl-].[Zn+2] [zinc chloride],enhancement of the rate of deposition of labelled peptide,tissue plaques; 0.1 mM,twenty-fold
same,effect on deposition of ^125 I-βA(26-42)-NH2 onto AD plaques,tissue plaques; tracer ^125 I-βA(26-42)-NH2,unaffected
same,factor of acceleration of deposition of ^125 I-βA(1-40)-OH onto silk thread,ceilan katia yarn (silk); tracer ^125 I-βA(1-40)-OH,about 5
same,effect on deposition of ^125 I-βA(26-42)-NH2 onto silk,ceilan katia yarn (silk); tracer ^125 I-βA(26-42)-NH2,unaffected
CC[C@H](C)[C@H](NC(=O)[C@H](C)NC(=O)CNC(=O)[C@H](CCCCN)NC(=O)[C@H](CC(=O)O)NC(=O)[C@H](CO)NC(=O)CN)C(=O)N[C@H](C(=O)NCC(=O)N[C@@H](CC(C)C)C(=O)N[C@@H](CCSC)C(=O)O)[C@@H](C)CC [D27-βA(25-35)-OH] (H-GSDKGAIIGLM-OH),deposition activity of fragment (active / not active),AD plaques [1],not active (exhibit less than about 1% of the deposition level of βA(1-40)OH)
CCCCCCCCCCCC[N+](C)(C)CCCS(=O)(=O)[O-] [Zwittergent 312],effect of detergent on deposition of labelled peptide on tissue plaques,tissue plaques,no effect
"βA(1-35)-NH2: carboxyamidated β-amyloid fragment, residues 1-35",deposition activity of fragment (active / not active),AD plaques [1],active
PEG-βA(10-35)-NH2: polyethylene glycol conjugate of βA(10-35)-NH2 ({PEG}-YEVHHQKLVFFAEDVGSNKGAIIGLM-NH2; reading uncertain),deposition activity of fragment (active / not active),AD plaques [1],not active (exhibit less than about 1% of the deposition level of βA(1-40)OH)
βA(1-28)-OH: 28 residue fragment corresponding to the amino terminal region,plaque competence as a function of pH,AD plaques [1],inactive at all pH values tested
same,deposition activity of fragment (active / not active),AD plaques [1],not active (exhibit less than about 1% of the deposition level of βA(1-40)OH)
same,activity relative to the full length peptide βA(1-40)-OH,AD plaques [1],less than 1%
βA(1-40)-PEG: β-amyloid peptide 1-40 conjugated to polyethylene glycol at the C-terminus,deposition activity of fragment (active / not active),AD plaques [1],active
"CCCCCCCCCCCCOS(=O)(=O)[O-].[Na+] [SDS, sodium dodecyl sulfate]",effect of detergent on deposition of labelled peptide on tissue plaques,tissue plaques,enhance deposition
same,effect of detergent on rate of deposition (binding) onto silk,ceilan katia yarn (silk),increase binding rate
same,rate of disappearance of tracer from the supernatant (aggregation),[2],faster
"^125 I-βA(10-35)-NH2: ^125 I-labelled βA(10-35)-NH2, labelled at Tyr10 (Y(125I)EVHHQKLVFFAEDVGSNKGAIIGLM-NH2)",plaque deposition (plaque competence) at pH 3.9,AD plaques [4],plaque-incompetent
same,plaque deposition at pH 5.8,AD plaques [4],30%
^125 I-βA(1-28)-OH: ^125 I-labelled βA(1-28)-OH,plaque deposition (plaque competence) at pH 3.9,AD plaques [4],plaque-incompetent
same,plaque deposition at pH 5.8,AD plaques [4],< 1%
YEVHHQKLVFFAEDVGSNKGAIIGLM-NH2 (not fully specified (residue 1)) [βA(10-35)-NH2],activity relative to the full length peptide,[3],35%

# From patent publication US5721106A, “In Vitro method for screening β-amyloid deposition” (Regents of the University of Minnesota, priority 1994, dated 1998)
